{
  "source": "patent US10124008B2",
  "about": "“Use of inhibitors of acid sphingomyelinase to treat acquired and inherited retinal degenerations” (Wisconsin Alumni Research Foundation, priority 2014, dated 2018)",
  "key": {"[1]": {"test_system": "LC3B-II and p62 in primary RPE monolayers", "experiment": "Immunoblotting of LC3B-II and p62 in polarized primary RPE monolayers", "assay_type": "cell-based, porcine", "experimental": "RPE harvested from mouse eyecups were sonicated in lysis buffer with protease inhibitors for 10 min. Primary RPE on TRANSWELL filters were harvested and lysed with NE-PER nuclear and cytoplasmic extraction reagents (Thermo Scientific #78833) according to the manufacturer's recommendation. Protein concentrations were measured with DC assay (BioRad). […] Proteins were then transferred onto nitrocellulose membrane using IBLOT dry transfer system (INVITROGEN), blocked in 5% milk in TBS-T for 1 hour before incubating in primary antibody overnight at 4° C. Membranes were probed with antibodies to LC3B (1:3000, Novus NB600-1384 for pig and 1:500, Sigma L7543 for mouse), p62/SQSTM1 (1:1000, ARP03-GP62-C) and actin (1:5000, Santa Cruz) followed by horseradish peroxidase-conjugated secondary antibodies. Immunoblots were visualized by ECL substrate (Thermo Scientific) and quantified using Image Studio (LI-COR). […] Other drugs used were the mTOR inhibitors Torin 1 and Torin 2 (50 nM and 1.5 μM, respectively, for 2 h, TOCRIS), the vacuolar ATPase inhibitor bafilomycin A1 (100 nM for 2 h, EMD Millipore), the LXRα agonist TO901317 (1 μM for 20 h, Cayman Chemicals), the HDAC6 inhibitor trichostatin A (TSA, 500 nM, 16 h, Sigma) and the ASMase inhibitor desipramine (10 μM for 3 h, Sigma). To depolymerize MTs, cells were treated with 33 μM nocodazole for 30 minutes, followed by cold-treatment (4° C.) for 30 minutes (Kreitzer et al., 2003). At the concentrations and exposure times used, none of these drugs caused alterations in RPE cell morphology or physiology (monitored by TER measurements, ZO-1 and organelle marker staining). […] Conversion of LC3B-I to its lipidated form (LC3B-II) is an indicator of autophagosome biogenesis and p62 levels are a measure of autophagic flux (Klionsky et al., 2012)."}, "[2]": {"test_system": "primary RPE cells", "experiment": "Live imaging of tandem fluorescent mRFP-GFP-LC3 (tfLC3), autophagic flux", "assay_type": "cell-based, porcine", "settings": "for autophagic flux / autophagosome-lysosome fusion (tfLC3 EGFP:mRFP): RPE with A2E, 3 h drug incubation (TO901317 1 μM 20 h); for autophagy after mTOR inhibition: polarized primary RPE, Torin 1 50 nM and Torin 2 1.5 μM, 2 h", "experimental": "RPE cells were transfected with EGFP-LC3 or tandem fluorescent mRFP-GFP-LC3 (Addgene) using the AMAXA NUCLEOFECTOR II (Lonza). Approximately 1.5 million cells and 5 μg of plasmid DNA were used for each transfection. Cells were plated either on serum-coated glass-bottom dishes (Mattek) or […] filters at confluence.\nAndor IQ2 software was used for image acquisition and Imaris x64 (Bitplane) for image analysis. […] Trafficking data was collected from three separate transfections for a total of at least 12-30 movies captured for treatment. During image acquisition care was taken to maintain the same laser power, exposure and electron-multiplying gain settings. […] After background subtraction (using the background subtraction algorithm and identical automatic threshold for all images) and smoothing (Gaussian algorithm with identical threshold settings for all images), Spots and Tracks algorithms were used to identify vesicles and follow them through time and cell-space to obtain total track length and track displacement.\nWe used tandem fluorescent mRFP-GFP-LC3 (tfLC3) to monitor autophagy in primary RPE cells in real time.\n(§1) We performed two initial screens: first, we compared the ability of functional inhibitors (fluoxetine and amitriptyline) with that of the lone structural ASMase inhibitor zoledronic acid in decreasing acetylated tubulin. Here, polarized RPE monolayers with or without A2E were treated with one of the three inhibitors (10 μM, 3 h). Desipramine as a positive control. At the end of the incubation period, cells were fixed and stained for acetylated tubulin, imaged and the amount of acetylated tubulin in the cells was quantified. Second, we evaluated three additional drugs (sertraline, astemizole and fexofenadine) for their abilities to increase autophagy in the RPE. Cells with or without bisretinoids were transfected with mRFP-GFP-LC3, starved to induce autophagy, treated with drugs and imaged as in FIG. 9D."}, "[3]": {"test_system": "EGFP-LC3-labeled autophagosomes in primary RPE", "experiment": "Live imaging of EGFP-LC3 autophagosome trafficking (spinning disk, Boolean gating)", "assay_type": "cell-based, porcine", "experimental": "RPE cells were transfected with EGFP-LC3 or tandem fluorescent mRFP-GFP-LC3 (Addgene) using the AMAXA NUCLEOFECTOR II (Lonza). Approximately 1.5 million cells and 5 μg of plasmid DNA were used for each transfection. Cells were plated either on serum-coated glass-bottom dishes (Mattek) or TRANSWELL filters at confluence. Live imaging of autophagosome traffic and autophagic flux were performed on the Revolution XD spinning disk microscopy system (Andor) equipped with the Yokogawa CSU-X1 confocal spinning disk head, Nikon Eclipse Ti inverted microscope surrounded by an Okolab cage incubator, iXon x3 897 EM-CCD camera, Andor laser combiner with four solid state lasers at 405, 488, 561, and 640 nm and corresponding band-pass filter sets (Sutter), and ASI motorized stage with piezo-Z for rapid Z-stack acquisition. Andor IQ2 software was used for image acquisition and Imaris x64 (Bitplane) for image analysis. For live imaging, cells were serum starved for 2 h to induce autophagy and rapid z-stacks were acquired using the 100×1.49 NA Apo TIRF objective (Nikon) for ˜50 frames at 37° C. Trafficking data was collected from three separate transfections for a total of at least 12-30 movies captured for treatment. During image acquisition care was taken to maintain the same laser power, exposure and electron-multiplying gain settings. Trafficking analysis was carried out using the Spots and Tracks modules of the Imaris software (Liu et al., 2010). After background subtraction (using the background subtraction algorithm and identical automatic threshold for all images) and smoothing (Gaussian algorithm with identical threshold settings for all images), Spots and Tracks algorithms were used to identify vesicles and follow them through time and cell-space to obtain total track length and track displacement. […] Data were analyzed using either a two-tailed t-test or one-way ANOVA followed by Bonferroni or Dunnett's post-tests (GraphPad PRISM). Unless otherwise stated, data are presented as Mean±S.E.M. of ≥3 independent experiments, with 3 to 4 replicates per condition per experiment. […] Regions were defined by: minimum or maximum track length, minimum or maximum displacement and a slope of 0.5 (displacement divided by length). Tracks with slope <0.5 were taken as less straight (region 2) than those with slope of >0.5 (region 3). Tracks within each region are represented as a percent of total number of tracks in Tables 1 and 2. One-way ANOVA or t-tests were used to compare regions between treatment groups. […] To examine the efficiency of autophagosome transport, Spots and Tracks algorithms in Imaris were used to calculate how far each autophagosome traveled (track displacement length) as a function of the movement required to travel that distance (total track length) (Liu et al., 2010)."}, "[4]": {"test_system": "acetylated tubulin in polarized primary RPE", "experiment": "Immunofluorescence staining of acetylated and tyrosinated tubulin", "assay_type": "cell-based, porcine", "settings": "for acetylated tubulin in RPE with A2E: inhibitors 10 μM for 3 h, 48 h after A2E treatment", "experimental": "ALEXAFLUOR secondary antibodies were used at 1:500 and rhodamine-phalloidin (Cytoskeleton, PHDR1) at 1:200. Filters were mounted under coverslips on glass slides under […] (Vector labs), sealed and visualized with Andor Revolution XD spinning disk confocal microscope using a 60×1.4 NA oil objective with identical exposures and gains for each antibody. Acetylated tubulin-labeled stable microtubules (≥5 μm in length) after nocodazole treatment were analyzed manually in the Surpass mode of Imaris (Bitplane).\nas §1"}, "[5]": {"settings": "Table 4, potential issues; cited from earlier work"}, "[6]": {"settings": "A2E-laden RPE after mTOR inhibition, TO901317 1 μM 20 h, desipramine 10 μM 3 h"}, "[7]": {"settings": "percent of total EGFP-LC3 tracks, serum-starved RPE, TSA 500 nM"}},
  "note": "Entries after “also recorded” stand apart in the source; their conditions may differ.",
  "data": [
    {"compound": "CO/C1=C\\C(C)=C\\[C@@H](C)[C@@H](O)[C@@H](C)C/C(C)=C/C=C/[C@H](OC)[C@@H]([C@@H](C)[C@@H](O)[C@H](C)[C@@]2(O)C[C@@H](O)[C@H](C)[C@@H](C(C)C)O2)OC1=O", "note": "[Bafilomycin A1]", "values": [
      {"measurement": "LC3B-II levels (immunoblot)", "setting": "[1]; after mTOR inhibition, agent versus control RPE", "value": "increased LC3B-II after mTOR inhibition in control cells but not cells exposed to A2E"}
    ]},
    {"compound": "CC(C)(C(=O)O)c1ccc(C(O)CCCN2CCC(C(O)(c3ccccc3)c3ccccc3)CC2)cc1", "note": "(stereo not shown) [Fexofenadine]", "values": [
      {"measurement": "autophagic flux / autophagosome-lysosome fusion (tfLC3 EGFP:mRFP)", "setting": "[2]", "value": "not as effective as astemizole, sertraline or desipramine in increasing autophagic flux"}
    ]},
    {"compound": "O=S(=O)(c1ccccc1)N(CC(F)(F)F)c1ccc(C(O)(C(F)(F)F)C(F)(F)F)cc1", "note": "[TO901317]", "values": [
      {"measurement": "autophagic flux / autophagosome-lysosome fusion (tfLC3 EGFP:mRFP)", "setting": "[2]", "value": "restored autophagic flux in cells with A2E and decreased EGFP fluorescence back to control levels"},
      {"measurement": "LC3B-II levels / autophagosome biogenesis (immunoblot)", "setting": "[1]; [6]", "value": "increased autophagosome biogenesis"},
      {"measurement": "p62 levels / autophagic flux (immunoblot)", "setting": "[1]; [6]", "value": "significantly lesser than corresponding condition without TO901317"}
    ]},
    {"compound": "CC(/C=C/C(=O)NO)=C\\[C@@H](C)C(=O)c1ccc(N(C)C)cc1", "note": "[TSA, trichostatin A]", "values": [
      {"measurement": "autophagosome trafficking (long-range, directed movements)", "setting": "[3]; agent alone versus control RPE", "value": "replicated the autophagosome trafficking defects seen in cells with A2E"},
      {"measurement": "Region 1 (R1) (D <2 μm, L <5 μm)", "setting": "[3]; [7]", "value": 88.01, "unit": "%"},
      {"measurement": "Region 3 (R3) (L >5 μm, Slope >0.5 μm)", "setting": "[3]; [7]", "value": 1.64, "unit": "%"}
    ]},
    {"compound": "CCC(=O)N1CCN(c2ccc(-n3c(=O)ccc4cnc5ccc(-c6cnc7ccccc7c6)cc5c43)cc2C(F)(F)F)CC1", "note": "[Torin 1]", "values": [
      {"measurement": "autophagy after mTOR inhibition", "setting": "[2]", "value": "autophagy was upregulated"}
    ]},
    {"compound": "Nc1ccc(-c2ccc3ncc4ccc(=O)n(-c5cccc(C(F)(F)F)c5)c4c3c2)cn1", "note": "[Torin 2]", "values": [
      {"measurement": "autophagy after mTOR inhibition", "setting": "[2]", "value": "autophagy was upregulated"}
    ]},
    {"compound": "CCN(CC)CCO[C@H]1CC[C@@]2(C)C(=CC[C@@H]3[C@@H]2CC[C@]2(C)C(=O)CC[C@@H]32)C1", "note": "[U18666A]", "values": [
      {"measurement": "acetylated tubulin", "setting": "[4]; agent alone versus control RPE, U18666A 1 μM, 16 h", "value": "Acetylated tubulin also increased"}
    ]},
    {"compound": "CN(C)CCC=C1c2ccccc2CCc2ccccc21", "note": "[amitriptyline]", "values": [
      {"measurement": "acetylated tubulin in RPE with A2E", "setting": "[4]", "value": "as effective as desipramine in decreasing acetylated tubulin; also recorded: decreased acetylated tubulin levels in RPE with A2E back to control levels"}
    ]},
    {"compound": "COc1ccc(CCN2CCC(Nc3nc4ccccc4n3Cc3ccc(F)cc3)CC2)cc1", "note": "[astemizole]", "values": [
      {"measurement": "autophagic flux / autophagosome-lysosome fusion (tfLC3 EGFP:mRFP)", "setting": "[2]", "value": "completely reversed the autophagic block induced by A2E"}
    ]},
    {"compound": "CNCCC(Oc1ccc(C(F)(F)F)cc1)c1ccccc1", "note": "(stereo not shown) [fluoxetine]", "values": [
      {"measurement": "acetylated tubulin in RPE with A2E", "setting": "[4]", "value": "as effective as desipramine in decreasing acetylated tubulin; also recorded: decreased acetylated tubulin levels in RPE with A2E back to control levels"}
    ]},
    {"compound": "CN[C@H]1CC[C@@H](c2ccc(Cl)c(Cl)c2)c2ccccc21", "note": "[sertraline]", "values": [
      {"measurement": "autophagic flux / autophagosome-lysosome fusion (tfLC3 EGFP:mRFP)", "setting": "[2]", "value": "completely reversed the autophagic block induced by A2E"}
    ]},
    {"compound": "O=P(O)(O)C(O)(Cn1ccnc1)P(=O)(O)O", "note": "[zoledronic acid]", "values": [
      {"measurement": "oral bioavailability", "setting": "[5]", "value": "<4", "unit": "% oral"}
    ]}
  ]
}
